The source of these data is PubChem BioAssay AID1891 (Broad Institute, 2009).

Calls of active or inactive are those of the source. How the calls were made is not given here.

The target in this experiment is Luciferin 4-monooxygenase (Photinus pyralis) (UniProt P08659). The experiment in a line: inhibition of purified Photinus pyralis luciferase – biochemical, luminescence, dose response (AID 1891). The following applies: purified firefly luciferase.
As to `Nc1ncnc2c1ncn2C1OC(CO)C(O)C1O` (centres undefined), the IC50 is > 11.2 µM (inactive).
`CCNC(=O)[C@H]1O[C@@H](n2cnc3c(N)ncnc32)[C@H](O)[C@@H]1O`: the IC50 was > 11.2 µM (inactive).
As for `CCNC(=O)C1OC(n2cnc3c(N)ncnc32)C(O)C1O` (centres undefined), the IC50 is > 11.2 µM (inactive).
As for `Nc1ncnc2c1ncn2[C@@H]1O[C@H](CO)[C@@H](O)[C@H]1O`, the IC50 was > 11.2 µM (inactive).

Usually IC50 stands for the point on the concentration scale where inhibition reaches its midpoint.
